Laboratory results taken from US6358973B1, “Benzazine derivatives as phosphodiesterase 4 inhibitors” (Zambon Group S.p.A., priority 1998, dated 2002).

Molecular target: PDE 4 enzyme
Experiment: PDE 4 enzyme inhibition (SPA, Amersham kit)
Assay type: biochemical
Conditions: PDE 4 purified from human PMNs; cAMP 1 μM; 40 minutes at 30° C.; 9 concentrations
Description: Evaluation of the PDE 4 Enzyme Inhibition a) Purification of Human Polymorphonucleate Leukocytes
The polymorphonucleate leukocytes (PMNs) were isolated from peripheral blood of healthy volunteers according to what described by Boyum A., Scand. J. Immunol., 1976, 5th suppl., 9). Shortly, the isolation of the PMNs was effected by Ficoll-Paque gradient centrifugation followed by sedimentation on dextrane and the erythrocyte contamination was eliminated by hypotonic lysis. […]
b) PDE 4 Enzyme Purification
The human PMNs were re-suspended in TRIS/HCl buffer (10 mM pH 7.8) containing MgCl2 (5 mM), EGTA (4 mM), mercaptoethanol (5 mM), TRITON-X100 (1%), pepstatin A (1 μM), PMSF (100 μM) and leupeptin (1 μM), and homogenised by Polytron. […]
The enzyme activity was evaluated with an Amersham kit based on the SPA (Scintillation Proximity Assay) technique. […] The radioactivity due to the particles was measured in a β-emitting counter. The results are expressed as percent activity versus the control present in each experiment. The IC50 values were calculated over 9 concentrations equidistant in logarithmic scale using a 4-parameters logistic function by software.
Molecule `COc1ccc2c(c1CC1CCCC1)CCN=C2Cc1c(Cl)cncc1Cl` [Compound 20, 5-Cyclopentylmethyl-1-(3,5-dichloro-pyridin-4-ylmethyl)-6-methoxy-3,4-dihydro-isoquinoline] has an IC50 of 35.9 ± 4.7 nM.

Tested on: not given
Experiment: not given
Conditions: not given
For `COc1ccc2c(c1)c(-c1ccccc1)cc(=O)n2Cc1c(Cl)cncc1Cl` [Compound 23, 1-(3,5-Dichloropyridin-4-ylmethyl)-6-methoxy-4-phenyl-1H-quinolin-2-one], the melting point was 191 to 192 °C. With `COc1ccc2c(c1)C(CCCCCCc1ccccc1)CN=C2Cc1c(Cl)cncc1Cl.Cl.Cl` (stereo not drawn) the melting point was 135 to 137 °C (dec.). For `COc1cccc2c1C(Cc1c(Cl)cncc1Cl)=NCC2CC1CCCC1.Cl.Cl` (stereo not drawn), the melting point was 189 to 190 °C (dec.). For `COc1ccc2c(c1)C(CC1CCCC1)CN=C2Cc1c(Cl)cncc1Cl.Cl.Cl` (stereo not drawn), the melting point was 162 to 164 °C (dec.). With `COc1cccc2c1C(Cc1c(Cl)cncc1Cl)=NCC2CCCCCCc1ccccc1.Cl.Cl` (stereo not drawn) the melting point was 117 to 119 °C (dec.).
